This passage reports Ki results from patent US10995091B2 (Proximagen, LLC, priority 2010, dated 2021).

The structures appear in SMILES notation.

In this test the target is T1, Human CXCR4 transfected HEK293 cells (Homo sapiens, UniProt P61073).
T1 construct: expressed in transfected cells; host or cells: HEK293
T1 sequence (P61073 whole entry): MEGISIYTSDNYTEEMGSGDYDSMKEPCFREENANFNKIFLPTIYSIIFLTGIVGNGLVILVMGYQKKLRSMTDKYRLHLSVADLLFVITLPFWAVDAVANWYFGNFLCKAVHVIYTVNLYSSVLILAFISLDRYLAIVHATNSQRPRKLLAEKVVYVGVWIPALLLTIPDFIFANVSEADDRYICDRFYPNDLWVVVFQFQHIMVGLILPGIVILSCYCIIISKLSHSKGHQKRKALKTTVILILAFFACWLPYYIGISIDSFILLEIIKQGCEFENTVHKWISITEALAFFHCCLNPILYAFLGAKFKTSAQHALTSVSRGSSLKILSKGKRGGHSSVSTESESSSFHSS
Kind of test: CXCR4 functional calcium assay (calcium flux FLIPR, antagonism of SDF1 response). The format is cell-based. The conditions noted are these: CXCR4 functional activity, antagonism of SDF1 (EC50 concentration), read-out: CXCR4 fKi. A digest of the protocol:
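HEK293 cells stably transfected with human CXCR4 were loaded with 2 μM Fluo-4 AM in HBSS containing 2.5 mM probenecid, 0.1% BSA and 10 mM HEPES at pH 7.4 and 37° C. Compound was added first, then SDF1 at its EC50 concentration, and intracellular calcium fluorescence was followed on a FLIPR. Antagonist dose-response curves were fitted.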
For `CC[C@H](C)N1CCC(N2CCCN(c3cccc(C(=O)Nc4ccncc4)n3)CC2)CC1` [Example 79, 6-(4-{1-[(2S)-Butan-2-yl]piperidin-4-yl}-1,4-diazepan-1-yl)-N-(pyridine-4-yl)pyridine-2-carboxamide], the Ki is below 0.02 µM.
The figure for `Cc1cnccc1NC(=O)c1cccc(N2CCCN(C3CCN(C(C)C)CC3)CC2)n1` [Example 88, N-(3-Methylpyridin-4-yl)-6-{4-[1-(propan-2-yl)piperidin-4-yl]-1,4-diazepan-1-yl}pyridine-2-carboxamide] is below 0.02 µM.
Take `[2H]C1([2H])CCN(c2cccc(C(=O)Nc3ccncc3)n2)CC(C)N1C1CCN(Cc2ccccc2Cl)CC1` (stereo not drawn) [Example 206, 6-(4-{1-[(2-Chlorophenyl)methyl]piperidin-4-yl}-5,5-dihydrogenio-3-methyl-1,4-diazepan-1-yl)-N-(pyridin-4-yl)pyridine-2-carboxamide]: the Ki was below 0.02 µM.
In the case of `CC(C)N1CCC(N2CCCN(c3cccc(-c4cc5cccnc5[nH]4)n3)CC2)CC1` [Example 99, 1-[1-(Propan-2-yl)piperidin-4-yl]-4-(6-{1H-pyrrolo[2,3-b]pyridine-2-yl}pyridine-2-yl)-1,4-diazepane], the Ki was in the range of 0.02 to 0.1 µM.
On to `CCc1cn(C)c(-c2cccc(N3CCCN(C4CCN(C(C)C)CC4)CC3)n2)n1` [Example 124, 1-[6-(4-Ethyl-1-methyl-1H-imidazol-2-yl)pyridine-2-yl]-4-[1-(propan-2-yl)piperidin-4-yl]-1,4-diazepane], for which the Ki was in the range of 0.02 to 0.1 µM.
Under `CC(C)(C)N1CCC(N2CCCN(c3cccc(C(=O)Nc4ccncc4)n3)CC2)CC1` [Example 80, 6-[4-(1-tert-Butylpiperidin-4-yl)-1,4-diazepan-1-yl]-N-(pyridine-4-yl)pyridine-2-carboxamide] stands below 0.02 µM.
As to `Cc1nc(-c2cccc(N3CCN(C4CCCN(C5CCCC5)CC4)CC3)n2)[nH]c1C1CC1` (stereo not drawn) [Example 245, 1-Cyclopentyl-4-{4-[6-(5-cyclopropyl-4-methyl-1H-imidazol-2-yl)pyridin-2-yl]piperazin-1-yl}azepane], the Ki was in the range of 0.02 to 0.1 µM.
Take `CC(C)N1CCC(N2CCCN(c3cccc(-c4nc5ccccc5s4)n3)CC2)CC1` [Example 151, 2-(6-{4-[1-(Propan-2-yl)piperidin-4-yl]-1,4-diazepan-1-yl}pyridine-2-yl)-1,3-benzothiazole]: the Ki is 0.1 to 0.5 µM.
As for `CC(C)N1CCC(N2CCCN(c3cccc(C(=O)NCC4CC4)n3)CC2)CC1` [Example 63, N-(Cyclopropylmethyl)-6-{4-[1-(propan-2-yl)piperidin-4-yl]-1,4-diazepan-1-yl}pyridine-2-carboxamide], the Ki is below 0.02 µM.
Regarding `Cc1nc(-c2cccc(N3CCCN(C4CCN(C(C)C)CC4F)CC3)n2)[nH]c1C1CC1` (stereo not drawn) [Example 213, 1-[6-(4-Cyclopropyl-5-methyl-1H-imidazol-2-yl)pyridin-2-yl]-4-[3-fluoro-1-(propan-2-yl)piperidin-4-yl]-1,4-diazepane], the Ki fell in the range of 0.02 to 0.1 µM.
For `O=C(NCC1CC1)c1csc(N2CCCN(C3CCN(Cc4ccccc4Cl)CC3)CC2)n1` [Example 265, 2-(4-{1-[(2-Chlorophenyl)methyl]piperidin-4-yl}-1,4-diazepan-1-yl)-N-(cyclopropylmethyl)-1,3-thiazole-4-carboxamide], the Ki is 0.5 to 1 µM.
For the compound `[2H]C1([2H])CCN(c2cccc(C(=O)Nc3ccncc3)n2)CC(C)N1C1CCN(C(C)C)CC1` (stereo not drawn) [Example 195, 6-{5,5-Dihydrogenio-3-methyl-4-[1-(propan-2-yl)piperidin-4-yl]-1,4-diazepan-1-yl}-N-(pyridin-4-yl)pyridine-2-carboxamide], the Ki was below 0.02 µM.
`C[C@H](c1ccc(F)cc1)N1CCC(N2CCCN(c3cccc(C(=O)NCC4CC4)n3)CC2)CC1` [Example 75, N-(Cyclopropylmethyl)-6-(4-{1-[(1R)-1-(4-fluorophenyl)ethyl]piperidin-4-yl}-1,4-diazepan-1-yl)pyridine-2-carboxamide]: the Ki was 0.1 to 0.5 µM.
On to `O=C(NCC1CC1)c1cccc(N2CCCN(C3CCN(C4CCCC4F)CC3)CC2)n1` (stereo not drawn) [Example 73, N-(Cyclopropylmethyl)-6-{4-[1-(2-fluorocyclopentyl)piperidin-4-yl]-1,4-diazepan-1-yl}pyridine-2-carboxamide], for which the Ki fell in the range of 0.02 to 0.1 µM.
Take `CCCCNC(=O)c1cccc(N2CCCN(C3CCN(Cc4ccccc4Cl)CC3)CC2)n1` [Example 138, N-Butyl-6-(4-{1-[(2-chlorophenyl)methyl]piperidin-4-yl}-1,4-diazepan-1-yl)pyridine-2-carboxamide]: the Ki lay within 0.5 to 1 µM.
Take `Clc1ccccc1CN1CCC(N2CCCN(c3ccccn3)CC2)CC1` [Example 261, 1-{1-[(2-Chlorophenyl)methyl]piperidin-4-yl}-4-(pyridin-2-yl)-1,4-diazepane]: the Ki lay in the range of 0.1 to 0.5 µM.
Consider `CC(C)N1CCC(CN[C@@H]2CCN(c3cccc(-c4ncc(C5CC5)[nH]4)n3)C2)CC1` [Example 223, (3R)-1-[6-(4-Cyclopropyl-1H-imidazol-2-yl)pyridin-2-yl]-N-{[1-(propan-2-yl)piperidin-4-yl]methyl}pyrrolidin-3-amine], for which the Ki was 0.5 to 1 µM.
The figure for `CC(C)N1CCC(N2CCCN(c3cccc(C(=O)NCCF)n3)CC2)CC1` [Example 8, N-(2-Fluoroethyl)-6-{4-[1-(propan-2-yl)piperidin-4-yl]-1,4-diazepan-1-yl}pyridine-2-carboxamide] is 0.1 to 0.5 µM.
`CC(C)N1CCC(N2CCCN(c3cccc(-c4cc5ccccc5[nH]4)n3)CC2)CC1` [Example 100, 2-(6-{4-[1-(Propan-2-yl)piperidin-4-yl]-1,4-diazepan-1-yl}pyridine-2-yl)-1H-indole]: the Ki lay in the range of 0.02 to 0.1 µM.
For `CC(C)N1CCC(N2CCCN(c3cccc(C(=O)NC[C@H]4CCCO4)n3)CC2)CC1` [Example 20, N-[(2R)-Oxolan-2-ylmethyl]-6-{4-[1-(propan-2-yl)piperidin-4-yl]-1,4-diazepan-1-yl}pyridine-2-carboxamide], the Ki lay in the range of 0.1 to 0.5 µM.
For the compound `Cc1nc(-c2cccc(N3CCCN(C4CCN(C(C)C)CC4)CC3)n2)no1` [Example 153, 1-[6-(5-Methyl-1,2,4-oxadiazol-3-yl)pyridin-2-yl]-4-[1-(propan-2-yl)piperidin-4-yl]-1,4-diazepane], the Ki lay in the range of 0.5 to 1 µM.
As for `CCc1nc(-c2cccc(N3CCCN(C4CCN(C(C)C)CC4)CC3)n2)[nH]c1C1CC1` [Example 122, 1-[6-(4-Cyclopropyl-5-ethyl-1H-imidazol-2-yl)pyridine-2-yl]-4-[1-(propan-2-yl)piperidin-4-yl]-1,4-diazepane], the Ki was below 0.02 µM.
As for `Cc1cc(C(=O)NCCCn2ccnc2)nc(N2CCCN(C3CCN(Cc4ccccc4Cl)CC3)CC2)n1` [Example 266, 2-(4-{1-[(2-Chlorophenyl)methyl]piperidin-4-yl}-1,4-diazepan-1-yl)-N-[3-(1H-imidazol-1-yl)propyl]-6-methylpyrimidine-4-carboxamide], the Ki is 0.1 to 0.5 µM.
For the compound `CC(C)N1CCC(N2CCCN(c3cccc(C(=O)NCc4cocn4)n3)CC2)CC1` [Example 41, N-(1,3-Oxazol-4-ylmethyl)-6-{4-[1-(propan-2-yl)piperidin-4-yl]-1,4-diazepan-1-yl}pyridine-2-carboxamide], the Ki is 0.02 to 0.1 µM.
Regarding `O=C(Nc1ccncc1)c1cccc(N2CC[C@@H](NCC3CCN(C4CCCC4)CC3)C2)n1` [Example 228, 6-[(3R)-3-{[(1-Cyclopentylpiperidin-4-yl)methyl]amino}pyrrolidin-1-yl]-N-(pyridin-4-yl)pyridine-2-carboxamide], the Ki is below 0.02 µM.
Take `CC(C)N1CCC(N2CCCN(c3cccc(-c4nc5ccccc5n4C)n3)CC2)CC1` [Example 140, 1-Methyl-2-(6-{4-[1-(propan-2-yl)piperidin-4-yl]-1,4-diazepan-1-yl}pyridin-2-yl)-1H-1,3-benzodiazole]: the Ki is 0.5 to 1 µM.
For the compound `CC(C)N1CCC(N2CCCN(c3cccc(C(=O)Nc4ccccn4)n3)CC2)CC1` [Example 28, 6-{4-[1-(Propan-2-yl)piperidin-4-yl]-1,4-diazepan-1-yl}-N-(pyridin-2-yl)pyridine-2-carboxamide], the Ki is below 0.02 µM.
In the case of `CC(C)N1CCC(N2CCCN(c3cccc(-c4cc5ccccc5n4C)n3)CC2)CC1` [Example 95, 1-Methyl-2-(6-{4-[1-(propan-2-yl)piperidin-4-yl]-1,4-diazepan-1-yl}pyridine-2-yl)-1H-indole], the Ki was in the range of 0.1 to 0.5 µM.
`CC(C)N1CCC(N2CCCN(c3cccc(C(=O)NCC4CC4)n3)CC2C)CC1` (stereo not drawn) [Example 194, N-(Cyclopropylmethyl)-6-{3-methyl-4-[1-(propan-2-yl)piperidin-4-yl]-1,4-diazepan-1-yl}pyridine-2-carboxamide]: the Ki is 0.02 to 0.1 µM.
Consider `CC(C)N1CCC(N2CCCN(c3cccc(C(=O)Nc4cncs4)n3)CC2)CC1` [Example 32, 6-{4-[1-(Propan-2-yl)piperidin-4-yl]-1,4-diazepan-1-yl}-N-(1,3-thiazol-5-yl)pyridine-2-carboxamide], for which the Ki was below 0.02 µM.
For `O=C(NCCCn1ccnc1)c1cccc(N2CCCN(C3CCN(Cc4ccccc4Cl)CC3)CC2)n1` [Example 139, 6-(4-{1-[(2-Chlorophenyl)methyl]piperidin-4-yl}-1,4-diazepan-1-yl)-N-[3-(1H-imidazol-1-yl)propyl]pyridine-2-carboxamide], the Ki was in the range of 0.1 to 0.5 µM.
For the compound `[2H]C1([2H])CCN(c2cccc(C(=O)Nc3ccncc3)n2)CCN1C1CCN([C@@H](C)C(F)(F)F)CC1` [Example 190, 6-(5,5-Dihydrogenio-4-{1-[(2S)-1,1,1-trifluoropropan-2-yl]piperidin-4-yl}-1,4-diazepan-1-yl)-N-(pyridin-4-yl)pyridine-2-carboxamide], the Ki was below 0.02 µM.
With `CC(C)N1CCC(N2CCCN(c3cccc(C(=O)NCc4nccs4)n3)CC2)CC1` [Example 39, 6-{4-[1-(Propan-2-yl)piperidin-4-yl]-1,4-diazepan-1-yl} N-(1,3-thiazol-2-ylmethyl)pyridine-2-carboxamide], the Ki lay within 0.02 to 0.1 µM.
